Patent publication US20240400572A1, “COMPOUNDS AND METHODS FOR TREATING CANCERS THAT ARE MGMT DEFICIENT REGARDLESS OF MMR STATUS” (Yale University, priority 2021, published 2024)
“And” between values parts separate entries of the source, which are not always exact repeats. Equal entries are not always repeated. Where two headings read alike, the source gives them in different places.

Tests used:
[1] = Brain distribution study; assay type: in vivo, male C57BL/6 mice; conditions: PO 20 mg/kg, male C57BL/6 mice
Method: Compound KL50 dosing solution: 3.39% DMSO+96.61% (10% HP-β-CD in saline) at 2 mg/mL; • 1) Weigh 17.39 mg of compound KL50 into a clean tube. • 2) Add 0.295 mL DMSO into the tube containing the compound. • 3) Vortex the tube for 3 min and sonicate it for 4 min. • 4) Add 8.400 mL 10% HP-β-CD in saline into the tube and vortex the tube for 3 min. Compound I-1 dosing solution: 3.39% DMSO+96.61% (10% HP-β-CD in saline) at 2 mg/mL; • 1) Weigh 16.86 mg Compound I-1 into a clean tube. • 2) Add 0.286 mL DMSO into the tube containing the compound. • 3) Vortex the tube for 3 min and sonicate it for 4 min. • 4) Add 8.144 mL 10% HP-β-CD in saline into the tube and vortex the tube for 3 min.
The in-vivo pharmacokinetic and brain distribution study was conducted under the following parameters. Twenty seven C57BL/6 male mice were purchased from Shanghai JiHui Laboratory Animal Co. LTD. Each mouse weighted from 16 g to 17 g. The mice were fasted overnight and fed post 4 hr sampling. Compound KL50 and Compound I-I were administered via oral gavage (PO) at a dose of 20 mg/kg (10 mL/kg). After dosing, sampling was completed at 0.083, 0.167, 0.333, 0.5, 0.75, 1, 2, 4 and 8 hr post dose, with three mice sacrificed at each time point.
Terminal bleeding for plasma and brain was completed at each time point. Approximately 110 μL blood per time point was collected into a K2EDTA tube via the facial vein. The blood sample was put on wet ice and centrifuged to obtain plasma sample (2000 g, 5 min under 4° C.) within 15 minutes. Plasma samples were acidified with 6 μL of formic acid for every 54 μL of plasma. After blood collection, a mid-line incision was made in the animal's scalp and the skin was retracted. The skull overlying the brain was removed. Then, the whole brain was collected, rinsed with cold saline, dried on filtrate paper, and weighed; and then snap frozen by placing the brain into dry-ice. Plasma samples were stored at approximately −70° C. until analysis. Brain tissue was homogenized with 3 volumes (v/w) of PBS (1% FA) and then analyzed with LC-MS/MS. The concentration of study drug was corrected with a dilution factor of four as following: Brain concentration=brain homogenate conc.×4, assuming 1 g wet brain tissue equals to 1 mL

[2] = system: four isogenic LN229 glioblastoma cell lines (MGMT+/−, MMR+/−); assay type: cell-based; conditions: for cytotoxicity and selectivity in the four isogenic cell lines (in words): LN229 MGMT+/−, MMR+/− cells
Method: Short-term Cell Viability Assay. Cells were seeded in 96-well plates at 1000 or 2000 cells/well and allowed to adhere at 23° C. for 60 min and then incubated overnight at 37° C. Cells were treated with indicated concentrations of compounds in triplicate for 4-6 days prior to fixation with 3.7% paraformaldehyde and nuclear staining with 1 μg/mL Hoechst 33342 dye. Cells were imaged on a Cytation 3 imaging reader (BioTek) and quantified using CellProfiler software.
Statistical analysis. Statistical analysis was performed using GraphPad Prism software. Data are presented as mean or median±SD or SEM as indicated. For in vitro short-term growth delay experiments, IC50 values were determined from the nonlinear regression equation, [inhibitor] vs normalized response with variable slope. For micronuclei assays, comparisons were made with one-way ANOVA and Sidak correction for multiple comparisons. For xenograft growth delay experiments, comparisons were made with Mann-Whitney test (for comparison of 2 groups) or Kruskal-Wallis test with FDR-adjusted p-values with Q set to 5% (for comparison of ≥3 groups). For xenograft survival analysis, Kaplan-Meier analysis was used to evaluate survival rate based on death or removal from study when body weight loss exceeded 20% of initial body weight
We synthesized the imidazotetrazine 4a (KL-50) and the triazene 4b (KL-85), as vehicles to deliver 2-fluoroethyl diazonium (4c), and a series of related agents to probe structure-activity relationships in tissue culture (FIG. Z1, D and F). The 2-fluoropropyl- and 3-fluoropropyl-triazenes (10 and 11, respectively) were prepared by diazotization of 4-aminoimdazole-5-carboxamide, followed by the addition of the respective amine. All other triazenes were prepared according to literature procedures. We evaluated the cytotoxicity of our compounds in short-term cell viability assays against four isogenic LN229 glioblastoma cell lines engineered to be proficient or deficient in MGMT and/or MMR activity, using short hairpin RNAs (shRNAs) targeting MSH2 (referred to as MGMT+/−, MMR+/− cells hereafter; FIG. ZS2A). This approach allowed us to rapidly and rigorously interrogate the relationship between MGMT and MMR status and compound activity.
The compounds 10a through 10l and TMZ were tested in the short-term cell viability assay.

NC(=O)c1ncn2c(=O)n(CCF)nnc12 [KL-50, 3-(2-fluoroethyl)-4-oxo-3H,4H-imidazo[4,3-d][1,2,3,5]tetrazine-8-carboxamide]
Brain Concentration/Plasma Concentration, Individuals ([1]; 0.083 hr, 20 mg/kg): 0.0770 and 0.0693
brain Concentration, Individuals ([1]; 0.083 hr, 20 mg/kg): 1970 ng/g and 1940 ng/g
Brain Concentration/Plasma Concentration, Individuals ([1]; 0.167 hr, 20 mg/kg): 0.123 and 0.156
brain Concentration, Individuals ([1]; 0.167 hr, 20 mg/kg): 2810 ng/g and 2820 ng/g
Brain Concentration/Plasma Concentration, Individuals ([1]; 0.333 hr, 20 mg/kg): 0.206 and 0.213
brain Concentration, Individuals ([1]; 0.333 hr, 20 mg/kg): 2980 ng/g and 4450 ng/g
Brain Concentration/Plasma Concentration, Individuals ([1]; 0.5 hr, 20 mg/kg): 0.260 and 0.250
brain Concentration, Individuals ([1]; 0.5 hr, 20 mg/kg): 3230 ng/g and 3830 ng/g
Brain Concentration/Plasma Concentration, Individuals ([1]; 0.75 hr, 20 mg/kg): 0.278 and 0.331
brain Concentration, Individuals ([1]; 0.75 hr, 20 mg/kg): 3060 ng/g and 3380 ng/g
Brain Concentration/Plasma Concentration, Individuals ([1]; 1 hr, 20 mg/kg): 0.345 and 0.266
brain Concentration, Individuals ([1]; 1 hr, 20 mg/kg): 2530 ng/g and 3270 ng/g
Brain Concentration/Plasma Concentration, Individuals ([1]; 2 hr, 20 mg/kg): 0.347 and 0.335
brain Concentration, Individuals ([1]; 2 hr, 20 mg/kg): 953 ng/g and 1530 ng/g
Brain Concentration/Plasma Concentration, Individuals ([1]; 4 hr, 20 mg/kg): 0.269 and 0.250
brain Concentration, Individuals ([1]; 4 hr, 20 mg/kg): 184 ng/g and 427 ng/g and 199 ng/g
Brain Concentration/Plasma Concentration, Individuals ([1]; 8 hr, 20 mg/kg): 0.175 and 0.244
brain Concentration, Individuals ([1]; 8 hr, 20 mg/kg): 85.3 ng/g and 18.2 ng/g and 45.2 ng/g
AUCINF ([1]; brain): 7213 ng·h/g
AUClast ([1]; brain): 7128 ng·h/g
concentration at 0.083 hr ([1]; male, C57BL/6, mouse, brain, po, 20 mg/kg, 0.083 hr, N=3, read-out: brain Concentration, Mean): 1820 ng/g
concentration at 0.083 hr ([1]; male, C57BL/6, mouse, brain, po, 20 mg/kg, 0.083 hr, read-out: brain Concentration, Individuals): 1540 ng/g
concentration at 0.167 hr ([1]; male, C57BL/6, mouse, brain, po, 20 mg/kg, 0.167 hr, N=3, read-out: brain Concentration, Mean): 2940 ng/g
concentration at 0.167 hr ([1]; male, C57BL/6, mouse, brain, po, 20 mg/kg, 0.167 hr, read-out: brain Concentration, Individuals): 3180 ng/g
concentration at 0.333 hr ([1]; male, C57BL/6, mouse, brain, po, 20 mg/kg, 0.333 hr, N=3, read-out: brain Concentration, Mean): 3690 ng/g
concentration at 0.333 hr ([1]; male, C57BL/6, mouse, brain, po, 20 mg/kg, 0.333 hr, read-out: brain Concentration, Individuals): 3630 ng/g
concentration at 0.5 hr ([1]; male, C57BL/6, mouse, brain, po, 20 mg/kg, 0.5 hr, N=3, read-out: brain Concentration, Mean): 3600 ng/g
concentration at 0.5 hr ([1]; male, C57BL/6, mouse, brain, po, 20 mg/kg, 0.5 hr, read-out: brain Concentration, Individuals): 3730 ng/g
concentration at 0.75 hr ([1]; male, C57BL/6, mouse, brain, po, 20 mg/kg, 0.75 hr, N=3, read-out: brain Concentration, Mean): 3250 ng/g
concentration at 0.75 hr ([1]; male, C57BL/6, mouse, brain, po, 20 mg/kg, 0.75 hr, read-out: brain Concentration, Individuals): 3300 ng/g
concentration at 1 hr ([1]; male, C57BL/6, mouse, brain, po, 20 mg/kg, 1 hr, N=3, read-out: brain Concentration, Mean): 2910 ng/g
concentration at 1 hr ([1]; male, C57BL/6, mouse, brain, po, 20 mg/kg, 1 hr, read-out: brain Concentration, Individuals): 2920 ng/g
concentration at 2 hr ([1]; male, C57BL/6, mouse, brain, po, 20 mg/kg, 2 hr, N=3, read-out: brain Concentration, Mean): 1140 ng/g
concentration at 2 hr ([1]; male, C57BL/6, mouse, brain, po, 20 mg/kg, 2 hr, read-out: brain Concentration, Individuals): 934 ng/g
concentration at 4 hr ([1]; male, C57BL/6, mouse, brain, po, 20 mg/kg, 4 hr, N=3): 270 ng/g
concentration at 8 hr ([1]; male, C57BL/6, mouse, brain, po, 20 mg/kg, 8 hr, N=3): 49.6 ng/g
Kp ([1]; male, C57BL/6, mouse, brain/plasma, po, 20 mg/kg, AUCbrain/AUCplasma, heading: AUCbrain/AUCplasma): 25.1%
Kp at 0.083 hr ([1]; male, C57BL/6, mouse, brain/plasma, po, 20 mg/kg, 0.083 hr, N=3, read-out: Brain Concentration/Plasma Concentration, Mean): 0.0718
Kp at 0.083 hr ([1]; male, C57BL/6, mouse, brain/plasma, po, 20 mg/kg, 0.083 hr, read-out: Brain Concentration/Plasma Concentration, Individuals): 0.0691
Kp at 0.167 hr ([1]; male, C57BL/6, mouse, brain/plasma, po, 20 mg/kg, 0.167 hr, N=3, read-out: Brain Concentration/Plasma Concentration, Mean): 0.136
Kp at 0.167 hr ([1]; male, C57BL/6, mouse, brain/plasma, po, 20 mg/kg, 0.167 hr, read-out: Brain Concentration/Plasma Concentration, Individuals): 0.13
Kp at 0.333 hr ([1]; male, C57BL/6, mouse, brain/plasma, po, 20 mg/kg, 0.333 hr, N=3, read-out: Brain Concentration/Plasma Concentration, Mean): 0.203
Kp at 0.333 hr ([1]; male, C57BL/6, mouse, brain/plasma, po, 20 mg/kg, 0.333 hr, read-out: Brain Concentration/Plasma Concentration, Individuals): 0.191
Kp at 0.5 hr ([1]; male, C57BL/6, mouse, brain/plasma, po, 20 mg/kg, 0.5 hr, N=3, read-out: Brain Concentration/Plasma Concentration, Mean): 0.257
Kp at 0.5 hr ([1]; male, C57BL/6, mouse, brain/plasma, po, 20 mg/kg, 0.5 hr, read-out: Brain Concentration/Plasma Concentration, Individuals): 0.259
Kp at 0.75 hr ([1]; male, C57BL/6, mouse, brain/plasma, po, 20 mg/kg, 0.75 hr, N=3, read-out: Brain Concentration/Plasma Concentration, Mean): 0.318
Kp at 0.75 hr ([1]; male, C57BL/6, mouse, brain/plasma, po, 20 mg/kg, 0.75 hr, read-out: Brain Concentration/Plasma Concentration, Individuals): 0.344
Kp at 1 hr ([1]; male, C57BL/6, mouse, brain/plasma, po, 20 mg/kg, 1 hr, N=3, read-out: Brain Concentration/Plasma Concentration, Mean): 0.296
Kp at 1 hr ([1]; male, C57BL/6, mouse, brain/plasma, po, 20 mg/kg, 1 hr, read-out: Brain Concentration/Plasma Concentration, Individuals): 0.278
Kp at 2 hr ([1]; male, C57BL/6, mouse, brain/plasma, po, 20 mg/kg, 2 hr, N=3, read-out: Brain Concentration/Plasma Concentration, Mean): 0.348
Kp at 2 hr ([1]; male, C57BL/6, mouse, brain/plasma, po, 20 mg/kg, 2 hr, read-out: Brain Concentration/Plasma Concentration, Individuals): 0.362
Kp at 4 hr ([1]; male, C57BL/6, mouse, brain/plasma, po, 20 mg/kg, 4 hr, N=3, read-out: Brain Concentration/Plasma Concentration, Mean): 0.231
Kp at 4 hr ([1]; male, C57BL/6, mouse, brain/plasma, po, 20 mg/kg, 4 hr, read-out: Brain Concentration/Plasma Concentration, Individuals): 0.174
Kp at 8 hr ([1]; male, C57BL/6, mouse, brain/plasma, po, 20 mg/kg, 8 hr, N=3, read-out: Brain Concentration/Plasma Concentration, Mean): 0.233
Kp at 8 hr ([1]; male, C57BL/6, mouse, brain/plasma, po, 20 mg/kg, 8 hr, read-out: Brain Concentration/Plasma Concentration, Individuals): 0.28
Cmax ([1]; mouse, brain): 3690 ng/g
MRT inf ([1]; mouse, brain): 1.57 h
Tmax ([1]; mouse, brain): 0.333 h
half-life ([1]; mouse, brain): 1.18 h
therapeutic index ([2]; IC50 in MGMT proficient and MMR proficient cells divided by IC50 in MGMT deficient and MMR deficient cells (FIG. 8)): 26.64
selectivity for MGMT-deficient cells ([2]; LN229 MGMT+ versus MGMT− cells): ~25 fold
cytotoxicity and selectivity in the four isogenic cell lines (in words) [2]: preferable toxicity for MGMT− cells compared to MGMT^+ cells, regardless of MMR status
cytotoxicity and selectivity in the four isogenic cell lines (in words) ([2]; listed as 4a): mirrored that of 4b
